# Laboratory results from publication PMC5414049 (Science (New York, N.Y.), 2016).
# What was measured:
# Type in all cases: biochemical
# [1] = target: T1, pyruvate kinase (Cdc19) (Saccharomyces cerevisiae, UniProt P00549)
# T1 sequence (P00549 2-500): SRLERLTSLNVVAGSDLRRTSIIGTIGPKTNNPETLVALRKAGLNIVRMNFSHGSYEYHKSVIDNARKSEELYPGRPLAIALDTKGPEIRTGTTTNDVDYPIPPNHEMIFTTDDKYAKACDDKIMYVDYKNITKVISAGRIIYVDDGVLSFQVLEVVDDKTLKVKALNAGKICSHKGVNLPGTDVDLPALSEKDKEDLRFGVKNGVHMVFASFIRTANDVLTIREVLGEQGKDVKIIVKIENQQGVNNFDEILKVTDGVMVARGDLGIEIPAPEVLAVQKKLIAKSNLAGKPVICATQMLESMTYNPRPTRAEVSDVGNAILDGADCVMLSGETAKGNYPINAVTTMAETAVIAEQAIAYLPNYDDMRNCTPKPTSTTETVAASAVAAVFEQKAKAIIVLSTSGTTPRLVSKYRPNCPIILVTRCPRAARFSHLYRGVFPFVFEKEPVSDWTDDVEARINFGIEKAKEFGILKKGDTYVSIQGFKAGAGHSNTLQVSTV
# [2] = target: T2, pyruvate decarboxylase (Pdc1) (Saccharomyces cerevisiae, UniProt P06169); test: ADH/NADH-coupled spectrophotometric assay, 1H-NMR confirmation
# T2 sequence (P06169 2-563): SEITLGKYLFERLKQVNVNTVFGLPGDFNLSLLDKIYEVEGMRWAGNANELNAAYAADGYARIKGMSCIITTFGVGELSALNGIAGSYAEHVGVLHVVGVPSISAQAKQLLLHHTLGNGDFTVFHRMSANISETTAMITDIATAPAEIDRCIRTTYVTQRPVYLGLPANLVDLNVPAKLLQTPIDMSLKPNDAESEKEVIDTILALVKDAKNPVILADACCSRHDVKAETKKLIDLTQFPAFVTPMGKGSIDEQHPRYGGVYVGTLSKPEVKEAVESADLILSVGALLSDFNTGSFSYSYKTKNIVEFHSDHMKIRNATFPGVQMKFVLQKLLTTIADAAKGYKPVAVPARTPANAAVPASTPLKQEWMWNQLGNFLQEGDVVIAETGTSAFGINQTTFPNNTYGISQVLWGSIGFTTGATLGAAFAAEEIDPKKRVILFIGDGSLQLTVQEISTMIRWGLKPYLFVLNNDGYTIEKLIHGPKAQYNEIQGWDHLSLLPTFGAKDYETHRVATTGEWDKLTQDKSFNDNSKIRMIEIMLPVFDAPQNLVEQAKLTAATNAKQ
# [3] = target: ornithine transcarbamylase (Arg3) (Saccharomyces cerevisiae, UniProt P05150)
# Chain of ornithine transcarbamylase (Arg3) (P05150 2-338): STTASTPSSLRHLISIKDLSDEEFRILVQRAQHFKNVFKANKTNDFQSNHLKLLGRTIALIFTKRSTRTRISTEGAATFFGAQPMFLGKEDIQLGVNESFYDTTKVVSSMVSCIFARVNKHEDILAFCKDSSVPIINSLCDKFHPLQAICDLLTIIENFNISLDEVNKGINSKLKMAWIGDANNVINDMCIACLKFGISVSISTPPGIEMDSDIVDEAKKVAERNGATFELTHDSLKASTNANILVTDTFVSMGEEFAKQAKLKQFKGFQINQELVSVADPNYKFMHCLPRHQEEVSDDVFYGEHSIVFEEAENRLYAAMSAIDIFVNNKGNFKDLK
smiles,measurement,setting,value
O=C(O)CC(O)(CC(=O)O)C(=O)O [citrate],Ki,[1],~5 mM
O=C(O)C(=O)Cc1ccccc1 [phenylpyruvate],Ki,[2],1 to 4 mM
C[C@H](N)C(=O)O [alanine],Ki,[3],15 mM
